Measured values taken from patent US10449216B2, “Modulating drug effects against metabotropic glutamate receptor with extracellular calcium” (GEORGIA STATE UNIVERSITY RESEARCH FOUNDATION, INC., priority 2013, dated 2019).
Entries after “also recorded” stand apart in the source; their conditions may differ. Where two headings read alike, the source gives them in different places.

How the values were obtained:
mGluR5 [1] = target: T1, mGluR5 (Rattus norvegicus, UniProt P31424); experiment: Intracellular Ca^2+ response/oscillation in mGluR5 transfected HEK293 cells; format: cell-based; design: expressed in transfected cells; host or cells: HEK293; settings: for Percentage of cells with oscillation as a response to L-Glu: low concentration of L-Glu
Experimental: HEK293 cells were fed on a Dulbecco's Modified Eagle Medium (DMEM) and 10% fetal bovine serum (Invitrogen) and cultured at 37° C. in a humidified incubator with 5% CO2. One day before transfection, HEK293 cells were grown on 22×44 mm coverslips and then were transfected with mGluR5 plasmid (received as a gift from Dr. Randy Hall, Emory University, Atlanta, Ga.) with the aid of lipofectamine 2000 (Invitrogen). mGluR5 transfected HEK293 cells were grown for 48 hours and then loaded with 4 µM Fura-2 AM in loading buffer containing 10 mM HEPES (pH 7.4), 140 mM NaCl, 5 mM KCl, 0.55 mM MgCl2 for 30 minutes at 37° C. The coverslips were then mounted in a bathing chamber on the stage of a fluorescence microscope. […] The ratio of fluorescence emitted at 510 nm resulting from excitation at 340 or 380 nm was analyzed to obtain the [Ca^2+]i response as a function of changes in [Ca^2+]o.
HEK293 cells were cultured and transfected as described above. Intracellular Ca^2+ concentration was recorded using the method as described previously. […]

WT mGluR1α = target: T2, WT mGluR1α (Rattus norvegicus, UniProt P23385); experiment: Single cell Fura-2 [Ca^2+]i response in HEK293 cells transiently transfected with WT mGluR1α; format: cell-based; settings: for Max. Res. to Ro 67-4853: normalized to maximal response of WT mGluR1α to L-Glu; for EC50: read-out: EC50 of Ro 67-4853
T2 construct: expressed in transfected cells; host or cells: HEK293
Experimental: The methods for measuring [Ca^2+]i responses were as described above. In the presence of (s)-MCPG, the cells were incubated with 0.5 mM (s)-MCPG in a saline buffer for 30 more minutes after Fura-2 loading.
Fura-2AM was used for monitoring [Ca^2+]i in real time as described above. […] Cells loaded with Fura-2AM were mounted onto a chamber perfused with saline buffer.

mGluR1 [2] = target: mGluR1 (Rattus norvegicus, UniProt P23385); settings: mGluR1, Sp. Rn; cited from earlier work
mGluR5 [3] = target: mGluR5 (Homo sapiens, UniProt P41594); settings: mGluR5, Sp. Hs; cited from earlier work
mGluR5 [4] = target: T1, mGluR5; settings: mGluR5, Sp. Rn; cited from earlier work
mGluR1 [5] = target: mGluR1 (Homo sapiens, UniProt Q13255); settings: mGluR1, Sp. Hs; cited from earlier work
mGluR1α E325I = target: T3, mGluR1α E325I (Rattus norvegicus, UniProt P23385, E325I); experiment: Single cell Fura-2 [Ca^2+]i response in HEK293 cells transfected with mGluR1α variant E325I; format: cell-based; settings: HEK293, read-out: Maximal Response to L-Quis, E325I, normalized to maximal response of WT mGluR1α to L-Glu
T3 construct: expressed in transfected cells; host or cells: HEK293

mGluR1α D318I = target: T4, mGluR1α D318I (Rattus norvegicus, UniProt P23385, D318I); experiment: [^3H]-L-Quis binding to membranes of HEK293 cells expressing D318I; settings: hypotonic buffer
T4 construct: expressed in transfected cells; host or cells: HEK293
Experimental: HEK293 cells transiently transfected with wild type mGluR1α or its mutants were maintained in a 5% CO2 37° C. incubator for an additional 48 hours as before. Cells were then collected in ice cold hypotonic buffer (20 mM HEPES, 100 mM NaCl, 5 mM MgCl2, 5 mM KCl, 0.5 mM EDTA, and 1% protease inhibitors at pH 7.0-7.5). The cell pellet was washed twice more using hypotonic buffer to remove the L-Glu in the cellular debris. The crude membrane protein (100 μg) was mixed with 30 nM [^3H]-L-Quis in 100 μL of hypotonic buffer. The nonspecific binding was determined by measuring bound [^3H]-L-Quis in the presence of 200 μM L-Glu. […] The reaction mixtures were incubated on ice for at least 1 hour, and the membrane-bound [^3H]-L-Quis was captured on filter paper using a Brandel cell harvester under vacuum. The filter paper was then transferred to scintillation fluid, and [^3H]-L-Quis was detected using a Beckman LS 6500 multi-purpose scintillation counter.

mGluR1α D322I = target: T5, mGluR1α D322I (Rattus norvegicus, UniProt P23385, D322I); experiment: Single cell Fura-2 [Ca^2+]i response in HEK293 cells transfected with mGluR1α variant D322I; format: cell-based; settings: HEK293, read-out: Maximal Response to L-Quis, D322I, normalized to maximal response of WT mGluR1α to L-Glu
T5 construct: expressed in transfected cells; host or cells: HEK293
T5 sequence (P23385 19-1199 D322I): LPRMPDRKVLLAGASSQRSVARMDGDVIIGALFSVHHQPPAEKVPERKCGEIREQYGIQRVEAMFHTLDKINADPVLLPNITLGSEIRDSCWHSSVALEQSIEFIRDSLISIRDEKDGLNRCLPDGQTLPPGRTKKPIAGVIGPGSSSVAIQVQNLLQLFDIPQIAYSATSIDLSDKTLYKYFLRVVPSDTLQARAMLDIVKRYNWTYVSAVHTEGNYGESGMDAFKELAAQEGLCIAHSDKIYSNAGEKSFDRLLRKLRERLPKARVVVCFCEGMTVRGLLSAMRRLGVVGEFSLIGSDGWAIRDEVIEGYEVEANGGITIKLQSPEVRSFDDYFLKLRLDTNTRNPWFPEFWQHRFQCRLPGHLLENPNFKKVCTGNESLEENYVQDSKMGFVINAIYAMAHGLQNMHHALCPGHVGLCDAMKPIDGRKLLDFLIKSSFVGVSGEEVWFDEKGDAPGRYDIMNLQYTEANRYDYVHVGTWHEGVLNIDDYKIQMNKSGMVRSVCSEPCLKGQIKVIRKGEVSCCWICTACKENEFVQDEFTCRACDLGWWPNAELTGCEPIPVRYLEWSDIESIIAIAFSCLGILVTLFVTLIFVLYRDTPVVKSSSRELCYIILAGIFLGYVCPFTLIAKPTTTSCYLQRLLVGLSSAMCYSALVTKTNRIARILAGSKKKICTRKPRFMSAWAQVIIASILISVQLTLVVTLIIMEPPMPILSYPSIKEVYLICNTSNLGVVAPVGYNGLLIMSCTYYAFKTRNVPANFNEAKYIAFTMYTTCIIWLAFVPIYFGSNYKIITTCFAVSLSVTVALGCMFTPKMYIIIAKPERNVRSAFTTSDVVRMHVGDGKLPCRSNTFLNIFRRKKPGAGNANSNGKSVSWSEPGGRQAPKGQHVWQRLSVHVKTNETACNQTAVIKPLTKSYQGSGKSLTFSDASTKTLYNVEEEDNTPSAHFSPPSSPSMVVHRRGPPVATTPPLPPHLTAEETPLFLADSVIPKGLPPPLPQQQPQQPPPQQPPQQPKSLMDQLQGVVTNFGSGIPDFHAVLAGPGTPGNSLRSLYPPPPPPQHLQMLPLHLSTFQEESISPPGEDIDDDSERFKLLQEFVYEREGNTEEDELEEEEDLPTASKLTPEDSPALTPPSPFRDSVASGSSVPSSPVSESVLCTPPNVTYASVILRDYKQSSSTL

Sequence of mGluR1 (Homo sapiens, UniProt Q13255) (Q13255 19-1194): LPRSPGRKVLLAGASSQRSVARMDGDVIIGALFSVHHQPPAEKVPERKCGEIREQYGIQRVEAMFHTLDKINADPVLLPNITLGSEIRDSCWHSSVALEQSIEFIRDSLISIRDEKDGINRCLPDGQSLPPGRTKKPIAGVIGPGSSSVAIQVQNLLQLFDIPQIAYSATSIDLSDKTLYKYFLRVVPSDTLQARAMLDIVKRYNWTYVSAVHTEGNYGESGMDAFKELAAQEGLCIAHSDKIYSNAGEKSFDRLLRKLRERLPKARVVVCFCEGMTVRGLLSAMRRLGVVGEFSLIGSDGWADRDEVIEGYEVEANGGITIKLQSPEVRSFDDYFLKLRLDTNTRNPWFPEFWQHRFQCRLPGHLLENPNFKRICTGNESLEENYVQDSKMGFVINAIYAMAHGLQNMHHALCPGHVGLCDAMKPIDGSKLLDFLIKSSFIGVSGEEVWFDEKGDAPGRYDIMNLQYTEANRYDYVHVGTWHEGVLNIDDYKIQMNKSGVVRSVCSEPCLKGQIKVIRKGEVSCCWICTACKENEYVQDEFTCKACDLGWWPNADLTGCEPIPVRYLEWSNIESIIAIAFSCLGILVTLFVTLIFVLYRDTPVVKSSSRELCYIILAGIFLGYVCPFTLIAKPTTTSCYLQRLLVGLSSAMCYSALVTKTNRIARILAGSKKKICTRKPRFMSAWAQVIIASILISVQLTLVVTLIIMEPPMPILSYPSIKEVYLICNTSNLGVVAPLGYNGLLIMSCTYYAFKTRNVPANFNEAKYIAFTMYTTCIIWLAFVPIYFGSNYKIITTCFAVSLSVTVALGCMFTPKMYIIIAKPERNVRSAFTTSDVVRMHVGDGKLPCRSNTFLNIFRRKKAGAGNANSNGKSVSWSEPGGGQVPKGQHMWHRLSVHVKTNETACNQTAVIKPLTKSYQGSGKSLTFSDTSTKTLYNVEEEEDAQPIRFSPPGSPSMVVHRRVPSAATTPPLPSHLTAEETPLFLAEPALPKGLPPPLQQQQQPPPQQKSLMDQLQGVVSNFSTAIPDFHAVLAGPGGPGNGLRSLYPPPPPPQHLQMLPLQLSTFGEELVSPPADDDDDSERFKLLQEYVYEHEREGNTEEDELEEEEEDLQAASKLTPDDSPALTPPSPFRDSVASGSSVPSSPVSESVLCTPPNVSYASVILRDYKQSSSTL
Sequence of mGluR5 (Homo sapiens, UniProt P41594) (P41594 21-1212): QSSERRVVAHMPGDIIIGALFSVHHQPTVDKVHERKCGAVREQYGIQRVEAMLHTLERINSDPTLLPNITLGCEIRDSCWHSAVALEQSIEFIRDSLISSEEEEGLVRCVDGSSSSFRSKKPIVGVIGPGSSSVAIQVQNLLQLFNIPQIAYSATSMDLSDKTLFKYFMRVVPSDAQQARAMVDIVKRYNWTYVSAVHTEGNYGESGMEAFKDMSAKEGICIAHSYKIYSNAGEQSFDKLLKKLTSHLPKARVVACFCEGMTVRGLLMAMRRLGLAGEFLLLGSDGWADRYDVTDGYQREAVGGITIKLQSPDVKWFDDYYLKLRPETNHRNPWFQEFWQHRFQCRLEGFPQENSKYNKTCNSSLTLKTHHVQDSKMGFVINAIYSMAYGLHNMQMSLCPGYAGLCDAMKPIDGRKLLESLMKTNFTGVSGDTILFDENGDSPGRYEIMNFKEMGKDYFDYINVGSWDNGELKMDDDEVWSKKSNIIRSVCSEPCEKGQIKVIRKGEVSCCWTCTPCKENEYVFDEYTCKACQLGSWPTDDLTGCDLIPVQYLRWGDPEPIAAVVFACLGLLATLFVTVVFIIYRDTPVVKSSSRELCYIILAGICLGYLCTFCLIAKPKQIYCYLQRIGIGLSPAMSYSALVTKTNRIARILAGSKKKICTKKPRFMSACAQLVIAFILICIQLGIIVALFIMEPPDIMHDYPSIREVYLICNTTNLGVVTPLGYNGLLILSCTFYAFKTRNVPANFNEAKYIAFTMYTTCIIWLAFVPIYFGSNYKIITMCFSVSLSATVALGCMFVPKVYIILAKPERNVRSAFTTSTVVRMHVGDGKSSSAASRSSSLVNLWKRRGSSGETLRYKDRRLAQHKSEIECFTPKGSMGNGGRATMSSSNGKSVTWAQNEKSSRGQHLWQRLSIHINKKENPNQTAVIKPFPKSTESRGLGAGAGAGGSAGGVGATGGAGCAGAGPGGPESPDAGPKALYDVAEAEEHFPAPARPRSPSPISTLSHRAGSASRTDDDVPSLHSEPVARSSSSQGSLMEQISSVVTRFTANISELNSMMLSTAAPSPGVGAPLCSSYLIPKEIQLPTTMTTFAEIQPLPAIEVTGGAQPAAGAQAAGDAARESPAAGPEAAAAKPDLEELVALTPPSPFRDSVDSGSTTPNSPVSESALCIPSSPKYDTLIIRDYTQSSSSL
T2 sequence (P23385 19-1199): as the sequence (P23385 19-1199 D322I) above, with I304D counted along it
Sequence of mGluR1 (Rattus norvegicus, UniProt P23385) (P23385 19-1199): as the sequence (P23385 19-1199 D322I) above, with I304D counted along it
T1 sequence (P31424 21-1203): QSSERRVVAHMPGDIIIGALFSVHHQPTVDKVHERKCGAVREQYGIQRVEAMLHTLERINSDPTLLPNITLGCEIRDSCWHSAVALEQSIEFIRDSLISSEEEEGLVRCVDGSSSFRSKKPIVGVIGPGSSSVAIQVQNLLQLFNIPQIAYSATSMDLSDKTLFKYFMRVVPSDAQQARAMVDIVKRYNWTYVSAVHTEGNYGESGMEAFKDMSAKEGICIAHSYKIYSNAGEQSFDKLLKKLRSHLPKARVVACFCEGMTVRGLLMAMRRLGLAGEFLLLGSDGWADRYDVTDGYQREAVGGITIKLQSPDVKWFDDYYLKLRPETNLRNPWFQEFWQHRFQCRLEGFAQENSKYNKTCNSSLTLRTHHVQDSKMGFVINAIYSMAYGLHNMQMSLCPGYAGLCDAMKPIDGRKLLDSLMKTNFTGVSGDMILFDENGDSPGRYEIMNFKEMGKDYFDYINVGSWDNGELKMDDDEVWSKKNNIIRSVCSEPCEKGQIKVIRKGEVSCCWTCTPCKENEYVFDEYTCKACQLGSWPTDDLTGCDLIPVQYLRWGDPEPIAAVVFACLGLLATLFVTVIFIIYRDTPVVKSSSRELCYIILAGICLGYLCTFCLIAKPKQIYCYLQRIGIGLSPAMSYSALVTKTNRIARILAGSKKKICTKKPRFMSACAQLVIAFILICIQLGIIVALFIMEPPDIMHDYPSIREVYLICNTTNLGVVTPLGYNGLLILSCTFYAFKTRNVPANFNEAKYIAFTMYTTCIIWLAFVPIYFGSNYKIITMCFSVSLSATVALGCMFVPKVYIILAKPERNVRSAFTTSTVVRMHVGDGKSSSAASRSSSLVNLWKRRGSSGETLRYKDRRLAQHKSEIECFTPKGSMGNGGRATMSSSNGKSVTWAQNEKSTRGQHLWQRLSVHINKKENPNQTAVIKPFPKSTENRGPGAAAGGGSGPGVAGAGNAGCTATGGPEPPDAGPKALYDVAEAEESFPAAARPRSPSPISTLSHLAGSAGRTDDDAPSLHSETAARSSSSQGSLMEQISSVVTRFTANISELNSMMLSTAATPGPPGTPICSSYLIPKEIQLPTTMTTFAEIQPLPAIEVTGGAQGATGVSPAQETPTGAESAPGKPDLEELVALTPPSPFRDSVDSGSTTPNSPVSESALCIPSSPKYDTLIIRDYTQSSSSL
T3 sequence (P23385 19-1199 E325I): as the sequence (P23385 19-1199 D322I) above, with I304D, E307I counted along it
T4 sequence (P23385 19-1199 D318I): as the sequence (P23385 19-1199 D322I) above, with D300I, I304D counted along it

## CCCCOC(=O)NC(=O)C1c2ccccc2Oc2ccccc21 [Ro 67-4853, (9H-xanthene-9-carbonyl) carbamic acid butyl ester]
mGluR5 [1]; 0.5 mM Ca^2+, 5 nM
  Stimulation of mGluR5 (intracellular Ca^2+ oscillation): could lead to the stimulation of mGluR5; also recorded: caused high frequency Ca^2+ oscillation
mGluR5 [1]; no Ca^2+ in the bath solution, 5 to 100 nM
  Stimulation of mGluR5 (intracellular Ca^2+ response): no intracellular Ca^2+ response was observed; also recorded: could not stimulate mGluR5
WT mGluR1α; [Ca^2+]o 0.5 mM
  Max. Res. to Ro 67-4853: 50 ± 8
WT mGluR1α; [Ca^2+]o 0.5 mM, pre-incubated with 0.5 mM Ca^2+ and 5 nM Ro 67-4853
  EC50: 20.7 nM
WT mGluR1α; [Ca^2+]o 1.8 mM
  Max. Res. to Ro 67-4853: 59 ± 4
  EC50: 10 nM
mGluR1 [2]
  Affinity (pKi): 5.1 pKi

## O=C(Nc1cc(-c2ccccc2)nn1-c1ccccc1F)c1ccc([N+](=O)[O-])cc1 [VU-1545]
mGluR5 [3]
  Affinity (pEC50): 8 pEC50

## CCCOC(=O)c1[nH]c(C)c(C(=O)OC(C)C(C)(C)C)c1C (stereo not shown) [3,5-dimethyl PPP]
mGluR1 [2]
  Affinity (pIC50): 7.8 pIC50

## N[C@H](C(=O)O)c1ccc(C(=O)O)cc1 [(S)-4CPG]
mGluR5 [4]
  Affinity (pIC50): 4.6 pIC50
mGluR1 [2]
  Affinity (pKi): 5.4 pKi

## NC(C(=O)O)c1cc(O)cc(O)c1 (stereo not shown) [3,5-DHPG]
mGluR5 [4]
  Affinity (pIC50): 5.4 pIC50
mGluR1 [2]
  Affinity (pKi): 5.8 pKi

## Cc1cc(C(=O)O)ccc1[C@H](N)C(=O)O [LY367385]
mGluR1 [5]
  Affinity (pIC50): 5.1 pIC50
mGluR1 [2]
  Affinity (pKi): 5.9 pKi

## N[C@H](C(=O)O)c1cc(O)no1 [ibotenate]
mGluR5 [4]
  Affinity (pIC50): 5.7 pIC50
mGluR1 [2]
  Affinity (pKi): 5.9-6.4 pKi

## Cc1nc(C#Cc2cccc(C#N)c2)cs1 [MTEB]
mGluR5 [3]
  Affinity (pIC50): 8.7 pIC50

## COc1ccc(Nc2ncnc3ccc(OC)cc23)cc1 [LY456236]
mGluR1 [5]
  Affinity (pIC50): 6.9 pIC50

## Cc1ccc(O)c(N=Nc2ccccc2)n1 [SIB-1757]
mGluR5 [3]
  Affinity (pIC50): 6.0-6.4 pIC50

## N[C@H](C(=O)O)c1ccc(C(=O)O)c(O)c1 [(S)-4C3HPG]
mGluR5 [4]
  Affinity (pIC50): 5.6 pIC50
mGluR1 [5]
  Affinity (pKi): 5.8-6.0 pKi

## NC(C(=O)O)c1cc(O)ccc1Cl (stereo not shown) [CHPG]
mGluR5 [3]
  Affinity (pIC50): 3.4 pIC50

## CCn1c(C)nc(N2CCc3ccccc3CC2)c(C#N)c1=O [EM-TBPC]
mGluR1 [2]
  Affinity (pIC50): 6.9 pIC50

## Cc1cc(C(=O)O)sc1C(N)C(=O)O (stereo not shown) [3-MATIDA]
mGluR1 [2]
  Affinity (pIC50): 5.2 pIC50

## Cc1ccc(S(=O)(=O)N2CCC[C@H]2c2ccc(F)cc2)cc1 [Ro67-7476]
mGluR1 [2]
  Affinity (pKi): 7.5-7.9 pKi

## N[C@H](C(=O)O)c1cccc(O)c1 [(S)-3HPG]
mGluR5 [4]
  Affinity (pIC50): 5 pIC50
mGluR1 [2]
  Affinity (pIC50): 4.9 pIC50

## CN(C)c1ccnc2sc3c(=O)n(N4CCCCCC4)cnc3c12 [A841720]
mGluR1 [5]
  Affinity (pIC50): 8 pIC50

## O=C(c1ccc(F)cc1)N1CCC[C@H](c2nc(-c3ccc(F)cc3)no2)C1 [ADX-47273]
mGluR5 [4]
  Affinity (pIC50): 6.5 pIC50

## O=C(Cc1ccccc1)c1ccc2nc3c(cc2c1)CCCO3 [R214127]
mGluR1 [5]
  Affinity (pIC50): 8.9 pIC50
mGluR1 [2]
  Affinity (pKi): 8.9 pKi

## N[C@H](C(=O)O)C12CC(c3nn[nH]n3)(C1)C2 [(S)-TBPG]
mGluR1 [2]
  Affinity (pIC50): 4.2 pIC50

## C[C@@](N)(C(=O)O)c1ccc(C(=O)O)cc1 [(s)-MCPG, (S)-α-Methyl-4-carboxyphenylglycine]
WT mGluR1α; 1.5 mM (s)-MCPG, 5 μM L-Glu
  Inhibition of activation of mGluR1α by L-Glu: entirely blocks
WT mGluR1α; 2.0 mM MCPG, 5 mM [Ca^2+]o
  Inhibition of responsiveness of mGluR1α to [Ca^2+]o: does not completely inhibit
mGluR5 [4]
  Affinity (pIC50): 3.7 pIC50
mGluR1 [2]
  Affinity (pKi): 3.8 pKi

## CN(C)c1nc(N)c(C(=O)Nc2ccccn2)nc1Cl [ACDPP]
mGluR5 [3]
  Affinity (pIC50): 6.9 pIC50

## CCOC(=O)NC(=O)C(c1ccccc1)c1ccccc1 [Ro01-6128]
mGluR1 [2]
  Affinity (pKi): 7.5-7.7 pKi

## O=C(NC12CC3CC(CC(C3)C1)C2)c1cnc2ccccc2n1 [NPS2390]
mGluR1 [2]
  Affinity (pKi): 8.9 pKi

## C=C1C[C@@H]2COC(=O)[C@]2(Cc2ccc3ccccc3c2)C1 [BAY 367620]
mGluR1 [2]
  Affinity (pIC50): 6.8-8.0 pIC50

## N[C@H](C(=O)O)C1[C@@H](C(=O)O)[C@@H]1C(=O)O (stereo partly shown) [DCG-IV]
mGluR5 [4]
  Affinity (pIC50): 4.7 pIC50
mGluR1 [2]
  Affinity (pKi): 4.1 pKi

## CCCOC(=O)c1[nH]c(C)c(C(=O)O[C@@H](C)C(C)(C)C)c1C [DM-PPP]
mGluR1 [2]
  Affinity (pIC50): 7.8 pIC50

## N[C@H](C(=O)O)[C@H]1C[C@@H]1C(=O)O [L-CCG-I]
mGluR5 [4]
  Affinity (pIC50): 5.8 pIC50
mGluR1 [2]
  Affinity (pKi): 5.6 pKi

## N[C@@]1(C(=O)O)CC[C@@H](C(=O)O)C1 [(1S,3R)-ACPD]
mGluR5 [4]
  Affinity (pIC50): 5.7 pIC50

## N[C@@H](CCC(=O)O)C(=O)O [L-Glu, L-glutamic acid]
mGluR5 [1]; 0.5 or 1.8 mM extracellular Ca^2+
  Percentage of cells with oscillation as a response to L-Glu: more than 50%
mGluR5 [1]; without extracellular Ca^2+
  Percentage of cells with oscillation as a response to L-Glu: less than 10%

## N[C@@H](Cn1oc(=O)[nH]c1=O)C(=O)O [L-Quis, L-Quisqualate]
mGluR5 [1]; 0 mM Ca^2+ bath solution
  mGluR5 response initiated by L-Quis: almost could not initiate any mGluR5 response; also recorded: hardly showed any response
mGluR5 [1]; absence of extracellular Ca^2+ addition
  Percentage of cells with L-Quis-triggered response: less than 20%
mGluR5 [1]; with addition of extracellular Ca^2+, 5 nM L-Quis
  Percentage of cells with L-Quis-triggered response: more than 60%
WT mGluR1α; HEK293, read-out: Maximal Response to L-Quis
  Emax: 37 ± 4%
mGluR1α E325I; [Ca^2+]o 0 mM
  Emax: 60 ± 8%
mGluR1α E325I; [Ca^2+]o 1.8 mM
  Emax: 88 ± 8%
mGluR1α D318I
  [^3H]-L-Quis binding to the mutant: eliminates L-Quis-binding
mGluR5 [4]
  Affinity (pIC50): 7.5 pIC50
mGluR1α D322I; [Ca^2+]o 0 mM
  Emax: 80 ± 16%
mGluR1α D322I; [Ca^2+]o 1.8 mM
  Emax: 96 ± 21%

## Cc1cccc(/C=C/c2ccccc2)n1 [SIB-1893]
mGluR5 [3]
  Affinity (pIC50): 5.9-6.5 pIC50

## CN1CC(=O)NC1=NC(=O)Nc1cccc(Cl)c1 [fenobam]
mGluR5 [3]
  Affinity (pIC50): 7.2 pIC50

## Cc1c(C(=O)N(C)C2CCCCC2)sc2nc3ccc(N)cc3n12 [YM298198]
mGluR1 [2]
  Affinity (pIC50): 7.8 pIC50

## NC1(C(=O)O)CCc2cc(C(=O)O)ccc21 (stereo not shown) [AIDA]
mGluR1 [5]
  Affinity (pA2): 4.2 pA2
mGluR1 [2]
  Affinity (pKi): 4 pKi

## N[C@H](C(=O)O)C12CC(C(=O)O)(C1)C2 [(S)-(+)-CBPG]
mGluR1 [2]
  Affinity (pIC50): 4.2 pIC50

## COc1cc(-c2nc3ccccc3o2)ccc1CC#N [BOMA]
mGluR5 [3]
  Affinity (pKi): 8.5 pKi

## Fc1cccc(/C=N/N=C/c2cccc(F)c2)c1 [DFB]
mGluR5 [3]
  Affinity (pIC50): 5.6-8.5 pIC50
